From paper PMC4361741 (Journal of psychopharmacology (Oxford, England), 2012)
Counter-ions that a name gives are not always drawn.

Key:
[1] = biological target: human κ-receptor (Homo sapiens, UniProt P41145); test: [3H]-diprenorphine competitive binding assay, CHO-κ cell membranes; details: from Ki values, Table 1
[2] = system: CD-1 mice; test: Forced swim test; type: in vivo
[3] = system: CD-1 mice; test: Tail suspension test; type: in vivo; details: pilot studies, fluoxetine 10 mg/kg; control 6.9 ± 0.7 N
[4] = system: CD-1 mice; test: Sucrose consumption test; details: fluoxetine 10 mg/kg, vs saline-treated controls
[5] = system: CD-1 mice; test: Elevated-plus maze; type: in vivo
[6] = system: CD-1 mice; test: Light dark box; type: in vivo; details: 8 and 15 d post-injection; diazepam 1 mg/kg 30 min prior
[7] = system: μ-receptors; test: Isolated guinea-pig ileum, DAMGO concentration-response curves; details: agonist at maximal doses
[8] = biological target: δ-receptor (Rattus norvegicus, UniProt P33533); test: [3H]-diprenorphine competitive binding assay, C6-δ cell membranes
[9] = biological target: κ-receptors (Cavia porcellus, UniProt P41144); test: Isolated guinea-pig ileum, U50,488 concentration-response curves
[10] = system: CD-1 mice; test: Warm water tail-withdrawal test, block of U50,488-induced antinociception; type: in vivo; details: U50,488 10 mg/kg, single injection
[11] = system: Wistar rats; test: κ-agonist; type: in vivo; details: 1 mg/kg
[12] = system: κ-receptors; details: single injection, ref Endoh et al., 1992, Jones and Holtzman; cited from earlier work
[13] = system: rat; details: 20mg/kg; ref Wiley et al., 2009; cited from earlier work
[14] = system: rats; details: ref Wiley et al., 2009; cited from earlier work
[15] = diazepam 1 mg/kg 30 min prior to test, each test day

NC(N)=Nc1ccc2[nH]c3c(c2c1)C[C@@]1(O)[C@H]2Cc4ccc(O)c5c4[C@@]1(CCN2CC1CC1)[C@H]3O5 [GNTI, 5’-guanidinonaltrindole]
κ-selectivity vs. δ [1]: ~4

CNCCC(Oc1ccc(C(F)(F)F)cc1)c1ccccc1 (centres unmarked) [fluoxetine, fluoxetine hydrochloride]
FST time spent immobile ([2]; fluoxetine 10 mg/kg 30 min prior, days 6 and 13): decreased the time spent immobile | TST average force [3]: 7.7 ± 0.5 N | increase in sucrose consumption [4]: 40%

CN1C(=O)CN=C(c2ccccc2)c2cc(Cl)ccc21 [diazepam]
EPM entries into the open arms [5, 15]: significantly increased | EPM time spent in the open arms [5, 15]: significantly increased | LDB time spent in the lit compartment [6]: significantly different from saline treated controls

DAMGO
inhibition of electrically-evoked twitches [7]: ~ 90%

Oc1ccc2c3c1O[C@H]1c4[nH]c5c(c4C[C@@]4(O)[C@@H](C2)N(CC2CC2)CC[C@]314)C[C@@]1(O)[C@H]2Cc3ccc(O)c4c3[C@@]1(CCN2CC1CC1)[C@H]5O4 [norBNI, Norbinaltorphimine]
Ki [8]: 460 ± 90 pM | reversibility of κ-antagonist effect on washout [9]: reversed on washout | effect on U50,488 Emax ([9]; increasing antagonist concentrations): without significant affect on Emax | pA2 Schild plot (+ 95% CI), κ ([9]; vs U50,488, n=4 tissues): 8.30 | effect on antinociceptive effects of U50,488 (overall) [10]: significantly reduced the antinociceptive effects of U50,488 | reduction of U50,488-evoked diuresis ([11]; 8 d post-treatment): about 30% | reduction of U50,488-evoked diuresis ([11]; 15 d post-treatment): maintained at 15 d post-treatment | EPM number of entries into the open arms ([5]; 7 d post-injection): significantly increased | EPM time spent in the open arms ([5]; 7 d post-injection): significantly increased the time spent | EPM time spent in the open arms ([5]; 14 d post-injection, 1 and 10 mg/kg): significantly increased the time spent in the open arms | FST time spent immobile ([2]; 6 and 13 d post-injection of antagonist): significantly decreased the time spent immobile | behavioural effects in the FST still apparent, time post-injection ([2]; single injection): up to 13 days post-injection | time maximal levels maintained [12]: 7 to 10 days | time of peak effects post-administration [12]: ~ 24 h | time of returning to control levels [12]: 3–4 weeks | duration of antidepressant-like effects in the rat FST [13]: up to 4 wks post-injection | effect on sucrose (0.5%) consumption [14]: had no effect on sucrose (0.5%) consumption | reversal of the effects of U50,488 on sucrose consumption [14]: did reverse the effects of U50,488
